Assay results as given in US20240417393A1, “CERTAIN 2,5-DIAZABICYCLO[4.2.0]OCTANES AS GLP-1 RECEPTOR MODULATORS” (ASTRAZENECA AB, priority 2021, published 2024).

What was measured:
[1] = target: T1, GLP-1R in a pancreatic insulinoma cell line (EndoC-PH1) (Homo sapiens, UniProt P43220); experiment: EndoC cAMP Accumulation Assay (HTRF); type: cell-based; settings: EndoC-PH1 human pancreatic beta cell line, endogenous GLP-1R, 30 min at rt
T1 construct: host or cells: EndoC-βH1 human pancreatic beta cell line
Description: EndoC cAMP Accumulation Assay
A HTRF cAMP assay (cAMP Gs dynamic kit; CisoBio Cat #62AM4PEJ) was used to identify agonists of GLP-1R in a pancreatic insulinoma cell line (EndoC-PH1). […] EndoC-PHlcells have detectable GLP-1R messenger ribonucleic acid (mRNA) as detected by quantitative polymerase chain reaction (qPCR). […] The EndoC-PH1 cell line is a valid model of human beta cells and applicable for screenings to identify novel drug target candidates (Mol. Metab., 2018, 8, 144-157). CisBio HTRF cAMP kits are based on a competitive immunoassay using cryptate-labelled anti-cAMP antibody and d2-labeled cAMP. The detection kit is intended for the direct is quantitative determination of cAMP. The specific signal (i.e. energy transfer) is inversely proportional to the concentration of cAMP in the standard or sample. Test compounds (10 mM in DMSO) were diluted into assay buffer (HBSS (Sigma #H8264) supplemented with 25 mM HEPES (Gibco #15630, pH 7.4), 0.1% BSA (Sigma #A3059) and 0.5 mM IBMX (Sigma #I7018) included fresh on the day of the assay) into 96 well U-bottom plates (Greiner #650201). Diluted compounds were transferred to ECHO source polypropelene plates (Labcyte #P-05525) and dose response curves were dispensed acoustically using ECHO 550 into black shallow-well u-bottom 384-well HTRF Assay Plates (Corning 4514). Cryovials of EndoC-H1 (supplied at 1×10e^7 cells/vial) were used directly for screening. The cryovials and were removed from N2(1) and thawed rapidly in a 37° C. water bath. The cells were resuspended in assay buffer and centrifuged at 300 g for 5 min. Cells were resuspended in assay buffer at the appropriate concentration, typically at 12e5 cells per mL (3000 cells per well, dependent on cell batch) and 2.5 μL diluted cells were added to all wells of destination plate by Multidrop combi reagent dispenser (Thermofisher). The plates were incubated at rt for 30 min. The assay was stopped by adding 2.5 μL anti-cAMP cryptate solution to all wells and 2.5 μL cAMP-d2 solution (both diluted 1:20 in lysis buffer) to columns 1-22 by Combi drop. A volume of 2.5 μL cAMP-d2 solution was added to wells E23 to P24 and 2.5 μL lysis buffer added to wells A23 to D24 by multichannel pipette. The plates were incubated at rt for 1 h and read on an Envision plate reader using excitation wavelength of 320 nm and emission of […] and 660 nm.
Raw data from Envision is converted to % DeltaF according to the manufacturer's instructions. Dose response curves are analysed via 4-Parameter Logistical Analysis and assay plate Z’ values obtained. Samples are graphed as percentage (%) activation plots compared to […] with assay window defined by negative control as basal cell is cAMP levels and positive control are defined by maximum GIP (82.5 nM) signal. GLP-1 (7-36 amide, Bachem H-6795) dose response curve was included on all plates.

human GLP-1R receptor = target: T2, human GLP-1R receptor (Homo sapiens, UniProt P43220, L260F); experiment: CHOK1 GLP-1R cAMP Assay (HTRF); type: cell-based; settings: CHO-K1 cells stably expressing human GLP-1R (Leu260Phe variant), 20 min at rt
T2 construct: expressed in transfected cells; host or cells: CHO-K1 (ATCC CCL-61)
Description: A cell line stably expressing the human GLP-1R receptor (NM_002062.5, including the naturally-occurring variant Leu260Phe) in a CHO-K1 (ATCC® CCL-61™) was used for assay.
GLP-1 receptor mediated agonist activity was determined in a cell-based assay measuring cyclic adenosine monophosphate (cAMP) levels in cells using Homogeneous Time-Resolved Fluorescence (HTRF) cAMP detection kit (CisBio catalog #62AM4PEC, cAMP Gs Dynamic range kit). The cAMP detection method is based on a competitive immunoassay, in which cAMP produced by the cells and cAMP labeled with the dye d2 compete for binding to a Europium-Cryptate-labeled anti-cAMP antibody. The specific HTRF signal is inversely proportional to the concentration of cAMP.
Compounds were added to individual well in 384 well-assay plates (Greiner #784076) using an Echo (LabCyte) dispenser from 10 mM stocks. Varying concentration of compounds were added to wells, and DMSO was used to normalize each well to a volume of 100 nL. A dose response curve of GLP-1(7-36)NH2 (Bachem H-6795) was included in each run. 5 μL of cAMP concentration response standards are applied in specified wells in the assay plates. Cryo-preserved cells are thawed and resuspended in assay buffer pre-heated to 37° C. (20 mM 2-[4-(2-hydroxyethyl)piperazin-1-yl]ethanesulfonic acid (HEPES) pH 7.4, 1× Hank's Balanced Salt Solution (HBSS, Life Technologies #14065) supplemented with 0.1% (w/v) bovine serum albumin (Sigma, A-7030)). Cells were centrifuged at 250*g for 5 min at rt, and resuspended in room tempered assay buffer to a final density of 0.16*10^6 cell/mL, to deliver 800 cells/well. 5 μL of assay buffer with 1 mM 3-isobutyl-1-methylxanthin (IBMX; Sigma cat I-7018) was dispensed per well in assay plates using a multidrop combi (Thermo Scientific) subsequently 5 μL of cell suspension was distributed to relevant wells in the assay using a multidrop dispenser. Assay plates were incubated 20 min at rt.
Detection reagents, Europium-Cryptate-labeled anti-cAMP antibody and cAMP labeled with the dye d2, are diluted in lysis buffer, provided by the manufacturer. 5 μL of each detection reagent is supplemented to each assay well using a multidrop dispenser. Assay plates are incubated in the dark for at least one h. The HTRF signal is measured using the HTRF module (excitation: 337 nm, emission A: 665 nm and emission B: 620 nm) in Pherastar FSX (BMG Labtech).
Raw data were converted to pM cAMP using the cAMP standard curve included in each run. Converted data were further analyzed in Genedata Screener (Genedata) and EC50 determinations were made from agonist dose-response curves analyzed with a curve fitting is program using a 4-parameter logistic dose response equation (Equation y=A+((B-A)/1+((C/x)^D))) where A is no stimulation, B is full stimulation, C is the EC50 and D is the Hill slope). The percent effect was determined relative to a saturating concentration of a full GLP-1R agonist (GLP-1(7-36)NH2 has 100% effect in this assay setup).

T2 sequence (P43220 24-463 L260F): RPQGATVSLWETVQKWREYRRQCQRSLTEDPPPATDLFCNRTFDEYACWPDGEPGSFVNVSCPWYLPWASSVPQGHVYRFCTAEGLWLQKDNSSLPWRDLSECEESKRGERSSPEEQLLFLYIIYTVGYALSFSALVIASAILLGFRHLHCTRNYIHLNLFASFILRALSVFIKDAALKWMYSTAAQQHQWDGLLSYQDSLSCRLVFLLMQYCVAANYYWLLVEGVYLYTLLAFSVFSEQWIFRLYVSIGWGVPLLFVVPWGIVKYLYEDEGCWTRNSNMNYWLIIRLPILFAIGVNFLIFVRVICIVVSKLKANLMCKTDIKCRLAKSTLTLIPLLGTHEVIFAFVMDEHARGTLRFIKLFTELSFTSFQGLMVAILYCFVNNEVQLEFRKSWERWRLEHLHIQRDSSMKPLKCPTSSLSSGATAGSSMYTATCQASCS
T1 sequence (P43220 24-463): as the sequence (P43220 24-463 L260F) above, with F237L counted along it

Row | SMILES | EC50 [1] | EC50 (human GLP-1R receptor)
1 | COc1cc(C(=O)O)cc2c1nc(CN1CCN(c3cccc4c3O[C@@](C)(c3ccc(Cl)cn3)O4)[C@@H]3CC[C@@H]31)n2C[C@@H]1CCCO1 (single isomer, unassigned) [Example 8a] | 6.6 nM | 6.2 nM
2 | C[C@]1(c2ccc(Cl)cn2)Oc2cccc(N3CCN(Cc4nc5c(F)cc(C(=O)O)cc5n4CC4(CC#N)CC4)[C@H]4CC[C@@H]43)c2O1 (single isomer, unassigned) [Example 23d] | 7.6 nM | 11 nM
3 | C[C@]1(c2ccc(Cl)cc2F)Oc2cccc(N3CCN(Cc4nc5c(F)cc(C(=O)O)cc5n4C[C@@H]4CCO4)[C@H]4CC[C@H]43)c2O1 (single isomer, unassigned) [Example 9a] | 340 nM | 57 nM
4 | COc1cc(C(=O)O)cc2c1nc(CN1CCN(c3cccc4c3O[C@@](C)(c3ccc(Cl)cn3)O4)[C@H]3CC[C@@H]31)n2CC1(C#N)CC1 (single isomer, unassigned) [Example 25c] | 3.1 nM | 1.2 nM
5 | C[C@]1(c2ccc(Cl)cn2)Oc2cccc(N3CCN(Cc4nc5c(F)cc(C(=O)O)cc5n4CC4(C#N)CC4)[C@H]4CC[C@@H]43)c2O1 (single isomer, unassigned) [Example 24a] | 16 nM | 32 nM
6 | C[C@]1(c2ccc(Cl)cn2)Oc2cccc(N3CCN(Cc4nc5c(Cl)cc(C(=O)O)cc5n4CC4(CC#N)CC4)[C@H]4CC[C@@H]43)c2O1 (single isomer, unassigned) [Example 26c] | 160 nM | 64 nM
7 | C[C@]1(c2ccc(Cl)cn2)Oc2cccc(N3CCN(Cc4nc5c(Cl)cc(C(=O)O)cc5n4C[C@@H]4CCO4)[C@H]4CC[C@H]43)c2O1 (single isomer, unassigned) [Example 20c, 4-Chloro-2-(((1R*,6S*)-5-((R*)-2-(5-chloropyridin-2-yl)-2-methylbenzo[d][1,3]dioxol-4-yl)-2,5-diazabicyclo[4.2.0]octan-2-yl)methyl)-1-(((S)-oxetan-2-yl)methyl)-1H-benzo[d]imidazole-6-carboxylic acid] | 2.2 nM | 0.81 nM
8 | COc1cc(C(=O)O)cc2c1nc(CN1CCN(c3cccc4c3O[C@@](C)(c3ccc(Cl)cn3)O4)[C@H]3CC[C@@H]31)n2CC1(C#N)CC1 (single isomer, unassigned) [Example 25b] | 7.5 nM | 6.2 nM
9 | C[C@]1(c2ccc(Cl)cc2F)Oc2cccc(N3CCN(Cc4nc5ccc(C(=O)O)cc5n4C[C@@H]4CCO4)[C@H]4CC[C@H]43)c2O1 (single isomer, unassigned) [Example 18c] | 10 nM | 5.8 nM
10 | C[C@]1(c2ccc(Cl)cn2)Oc2cccc(N3CCN(Cc4nc5c(F)cc(C(=O)O)cc5n4CC4(CC#N)CC4)[C@H]4CC[C@@H]43)c2O1 (single isomer, unassigned) [Example 23b] | 85 nM | 27 nM
11 | COc1cc(C(=O)O)cc2c1nc(CN1CCN(c3cccc4c3O[C@@](C)(c3ccc(Cl)cn3)O4)[C@@H]3CC[C@@H]31)n2C[C@@H]1CCCO1 (relative stereo) [Example 8b, 2-((1R*,6S*)-5-(R*)-2-(5-Chloropyridin-2-yl)-2-methylbenzo[d][1,3]dioxol-4-yl)-2,5-diazabicyclo[4.2.0]octan-2-yl)methyl)-4-methoxy-1-(((S)-tetrahydrofuran-2-yl)methyl)-1H-benzo[d]imidazole-6-carboxylic acid] | 590 nM | 400 nM
12 | C[C@]1(c2ccc(Cl)cc2F)Oc2cccc(N3CCN(Cc4nc5ccc(C(=O)O)cc5n4C[C@@H]4CCO4)[C@H]4CC[C@H]43)c2O1 (single isomer, unassigned) [Example 18b, 2-((1R*,6S*)-5-(R*)-2-(4-Chloro-2-fluorophenyl)-2-methylbenzo[d][1,3]dioxol-4-yl)-2,5-diazabicyclo[4.2.0]octan-2-yl)methyl)-1-(((S)-oxetan-2-yl)methyl)-1H-benzo[d]imidazole-6-carboxylic acid] | 480 nM | 120 nM
13 | C[C@]1(c2ccc(Cl)cn2)Oc2cccc(N3CCN(Cc4nc5ccc(C(=O)O)cc5n4C[C@@H]4CCO4)[C@H]4CC[C@H]43)c2O1 (single isomer, unassigned) [Example 5b, 2-((1R*,6S*)-5-(R*)-2-(5-Chloropyridin-2-yl)-2-methylbenzo[d][1,3]dioxol-4-yl)-2,5-diazabicyclo[4.2.0]octan-2-yl)methyl)-1-(((S)-oxetan-2-yl)methyl)-1H-benzo[d]imidazole-6-carboxylic acid] | 120 nM | 18 nM
14 | C[C@]1(c2ccc(Cl)cn2)Oc2cccc(N3CCN(Cc4nc5ccc(C(=O)O)cc5n4C[C@@H]4CCO4)[C@H]4CC[C@@H]43)c2O1 (single isomer, unassigned) [Example 22b, 2-(((1R*,6R*)-5-((R*)-2-(5-Chloropyridin-2-yl)-2-methylbenzo[d][1,3]dioxol-4-yl)-2,5-diazabicyclo[4.2.0]octan-2-yl)methyl)-1-(((S)-oxetan-2-yl)methyl)-1H-benzo[d]imidazole-6-carboxylic acid] | 18 nM | 5.3 nM
15 | COc1cc2nc(CN3CCN(c4cccc5c4OC(C)(c4ccc(Cl)cn4)O5)[C@H]4CC[C@@H]43)n(C[C@@H]3CCO3)c2cc1C(=O)O (mixture of isomers) [Example 12, 2-(((1RS,6RS)-5-(2-(5-Chloropyridin-2-yl)-2-methylbenzo[d][1,3]dioxol-4-yl)-2,5-diazabicyclo[4.2.0]octan-2-yl)methyl)-5-methoxy-1-(((S)-oxetan-2-yl)methyl)-1H-benzo[d]imidazole-6-carboxylic acid] | 320 nM | 200 nM
